According to patent publication US20120245107A1, “METHODS OF REDUCING THE PROLIFERATION AND VIABLILITY OF MICROBIAL AGENTS” (Targeted Delivery Technologies Limited, priority 2009, published 2012):
Where a name gives a salt, the structure may show the parent alone. Read-outs that look alike come from different tables or passages of the source.

Legend:
Assay type in all cases: cell-based
[1] = tested on: Trichophyton rubrum MYA4498; assay: Morphological effects of antifungal preparations on dermatophyte hyphae in vitro (calcofluor white microscopy); details: T. rubrum hyphae; for Week 1 Change in morphology If yes, description of change: hydrochloride
Description: The morphological changes to dermatophyte hyphae following exposure to an antifungal formulation of the invention, specifically a terbinafine formulation, compared to terbinafine hydrochloride solution in vitro were evaluated.
Trichophyton rubrum MYA4498, one of the quality control isolates approved by the Clinical and Laboratory Standards Institute (CLSI) for dermatophyte susceptibility testing, was used as a test isolate throughout testing, (See, Ghannoum et al., 2004, J Clin Microbiol. 42(7): 2977-2979; Ghannoum et al., J Clin Microbiol. 44: 353-4350. Inoculum containing 3×10^3 conidia/ml of T. rubrum was prepared in RPMI-1640 buffered with MOPS (Hardy Diagnostics, Santa Maria. CA), added to the wells of microtiter plates (100 ul aliquots) and incubated at 35° C. for 2-3 days until good hyphal growth was achieved. Specific concentrations of 1 mg/ml, 3 mg/ml, and 15 mg/ml of terbinafine alone were prepared in RPMI-1640. The terbinafine hydrochloride (1 mg/ml. 3 mg/ml, and 15 mg/ml) and 15 mg/ml of a terbinafine formulation of the invention was added to the wells of the microtiter plates (100 ul aliquots) and re-incubated. Twenty plates for each drug were set up to ensure adequate sample for examination over several weeks; RPMI was added as needed to maintain the volume of each well at 200 ul.
At pre-determined intervals (24, 48, 72, and 96 hours and once weekly thereafter for a total of 12 weeks), a loopful of hyphal growth from the bottom of each well was removed to a glass microscope slide containing a drop of calcofluor white stain (fluorescent KOH) and covered with a cover slip. Slides were examined microscopically under both white light and UV light. Images from a representative field visualized under each light source were be recorded.
Samples showing significant differences in morphology between exposure of a terbinafine formulation vs. terbinafine alone were further examined under Scanning Electron Microscopy (SEM). Preparation of samples for SEM were performed following previously established methodology (see. Chandra et al., 2001. J. Dent. Res. 80:903-908).

Aspergillus flavus = assay: Minimum inhibitory concentration (MIC100), CLSI M38-A2 broth dilution
Description: (§1) Antifungal activity of the antifungal formulations of the invention against dermatophytes, as compared to terbinafine hydrochloride alone, is determined in various dermatophytes known to cause onychomycosis, including Trichophyton rubrum, T. mentagrophytes, and Epidermophyton floccosum. Antifungal activity of the antifungal formulations of the invention as compared to terbinafine hydrochloride alone, was determined in various pathogenic fungi, including Aspergillus flavus and Aspergillus fumigatus. Antifungal activity of the antifungal formulations of the invention was measured by the minimum inhibitory concentration (MIC). Antifungal activity can also be measured by minimum fungicidal concentration (MFC).
(§2) Several strains of Aspergillus flavus, Aspergillus fumigatus, and Candida albicans were tested. Trichophyton rubrum MYA4498 and T. mentagrophytes MYA4439, the QC isolates approved by the Clinical and Laboratory Standards Institute (CLSI) for dermatophyte susceptibility testing, can also be tested.
(§3) MIC testing was performed according to the CLSI M38A2 standard for the susceptibility testing of dermatophytes developed at the Center for Medical Mycology (See, Ghannoum et al., 2004, J Clin Microbial. 42(7): 2977-2979 CLSI, Reference Method for Broth Dilution Antifungal Susceptibility Testing of Filamentous Fungi: Approved Standard-Second Edition. CLSI document M38-A2 [ISBN 1-56238-668-9]. CLSI, 940 West Valley Road, Suite 1400, Wayne, Pa. 19087-1898 USA, 2008). Briefly, RPMI was the test medium, incubation temperature and time was 35° C. and 24 hours or 48 hours, respectively, and the inoculum size was 1-3×10^3 conidia/ml. The MIC endpoint was 100% inhibition as compared to the growth control.
(§4) The MIC range, MIC100 (defined as the minimum concentration required to inhibit 100% of the isolates tested), for the antifungal preparations of the invention and comparators was computed. The MFC range, MFC50, MFC90, and MFC100 for the antifungal preparations of the invention and comparators can also be computed.
(§5) In this example, the terbinafine formulation of the invention comprises terbinafine formulated with a phospholipid and a surfactant.

Aspergillus fumigatus = assay: as above
Description: as §1, §2, §3, §4, §5

[2] = tested on: Trichophyton rubrum MYA4498; assay: Morphological effects of antifungal preparations on dermatophyte hyphae in vitro (calcofluor white microscopy); details: T. rubrum hyphae; for Week 1 Change in morphology If yes, description of change: hydrochloride; remark: listed apart in the source

## CN(C/C=C/C#CC(C)(C)C)Cc1cccc2ccccc12 [Terbinafine hydrochloride, terbinafine hydrochloride]
[1]; 3 mg/mL, 24, 48, 72 and 96 hours
  morphological changes observed: no morphological changes
[1]; 3 mg/mL
  Week 1 Change in morphology If yes, description of change: no presence of vacuoles within the hyphae
  Week 2 Change in morphology If yes, description of change: Yes: hyphae under
[1]; 3 mg/mL, listed as Tcrbinafine
  Week 1 Change in morphology If yes, description of change: no
[1]; 15 mg/mL, 24 hour
  24 hour Change in morphology If yes, description of change: no
[1]; 15 mg/mL, 48 hour
  48 hour Change in morphology If yes, description of change: no
[1]; 15 mg/mL, 72 hour
  72 hour Change in morphology If yes, description of change: no
[1]; 15 mg/mL, 96 hour
  96 hour Change in morphology If yes, description of change: no
[1]; 15 mg/mL, listed as Terbinafine
  Week 1 Change in morphology If yes, description of change: no
[1]; 15 mg/mL, listed as terbinafine
  Week 1 Change in morphology If yes, description of change: no presence of vacuoles within the hyphae
[1]; 15 mg/mL
  Week 2 Change in morphology If yes, description of change: no
Aspergillus flavus; 24 h, A. flavus strain MRL No. 17840, 24 hours, read-out: MIC100 (μg/mL) in 24 hours
  MIC: 0.002 µg/mL
Aspergillus flavus; 24 h, A. flavus strain MRL No. 17842, 24 hours, read-out: MIC100 (μg/mL) in 24 hours
  MIC: 0.002 µg/mL
Aspergillus flavus; 24 h, A. flavus strain MRL No. 18736, 24 hours, read-out: MIC100 (μg/mL) in 24 hours
  MIC: 6e-05 µg/mL
Aspergillus flavus; 24 h, A. flavus strain MRL No. 18743, 24 hours, read-out: MIC100 (μg/mL) in 24 hours
  MIC: 0.008 µg/mL
Aspergillus flavus; 24 h, A. flavus strain MRL No. 18744, 24 hours, read-out: MIC100 (μg/mL) in 24 hours
  MIC: 0.008 µg/mL
Aspergillus flavus; 48 h, A. flavus strain MRL No. 17840, 48 hours, read-out: MIC100 (μg/mL) in 48 hours
  MIC: 0.004 µg/mL
Aspergillus flavus; 48 h, A. flavus strain MRL No. 17842, 48 hours, read-out: MIC100 (μg/mL) in 48 hours
  MIC: 0.002 µg/mL
Aspergillus flavus; 48 h, A. flavus strain MRL No. 18736, 48 hours, read-out: MIC100 (μg/mL) in 48 hours
  MIC: 0.002 µg/mL
Aspergillus flavus; 48 h, A. flavus strain MRL No. 18743, 48 hours, read-out: MIC100 (μg/mL) in 48 hours
  MIC: 0.015 µg/mL
Aspergillus flavus; 48 h, A. flavus strain MRL No. 18744, 48 hours, read-out: MIC100 (μg/mL) in 48 hours
  MIC: 0.002 µg/mL
Aspergillus fumigatus; 24 h, A. fumigatus strain MRL No. 2456, 24 hours, read-out: MIC100 (μg/mL) in 24 hours
  MIC: 0.25 µg/mL
Aspergillus fumigatus; 24 h, A. fumigatus strain MRL No. 2471, 24 hours, read-out: MIC100 (μg/mL) in 24 hours
  MIC: 0.25 µg/mL
Aspergillus fumigatus; 24 h, A. fumigatus strain MRL No. 2574, 24 hours, read-out: MIC100 (μg/mL) in 24 hours
  MIC: 0.5 µg/mL
Aspergillus fumigatus; 24 h, A. fumigatus strain MRL No. 16621, 24 hours, read-out: MIC100 (μg/mL) in 24 hours
  MIC: 0.5 µg/mL
Aspergillus fumigatus; 24 h, A. fumigatus strain MRL No. 16629, 24 hours, read-out: MIC100 (μg/mL) in 24 hours
  MIC: 0.5 µg/mL
Aspergillus fumigatus; 48 h, A. fumigatus strain MRL No. 2456, 48 hours, read-out: MIC100 (μg/mL) in 48 hours
  MIC: 234 µg/mL
Aspergillus fumigatus; 48 h, A. fumigatus strain MRL No. 2471, 48 hours, read-out: MIC100 (μg/mL) in 48 hours
  MIC: 234 µg/mL
Aspergillus fumigatus; 48 h, A. fumigatus strain MRL No. 2574, 48 hours, read-out: MIC100 (μg/mL) in 48 hours
  MIC: 234 µg/mL
Aspergillus fumigatus; 48 h, A. fumigatus strain MRL No. 16627, 48 hours, read-out: MIC100 (μg/mL) in 48 hours
  MIC: 234 µg/mL
Aspergillus fumigatus; 48 h, A. fumigatus strain MRL No. 16629, 48 hours, read-out: MIC100 (μg/mL) in 48 hours
  MIC: 234 µg/mL
[2]; 1 μg/mL, 24, 48, 72 and 96 hours
  morphological changes observed: no morphological changes
[2]; 1 μg/mL
  24 hour Change in morphology If yes, description of change: no
  48 hour Change in morphology If yes, description of change: no
  72 hour Change in morphology If yes, description of change: no
  96 hour Change in morphology If yes, description of change: no
[2]; 1 μg/mL, listed as Terbinafine
  Week 1 Change in morphology If yes, description of change: Yes: hyphae under
[2]; 1 μg/mL, listed as terbinafine
  Week 1 Change in morphology If yes, description of change: had vacuoles within the hyphae
[2]; 1 μg/mL, Week 2
  Week 2 Change in morphology If yes, description of change: Yes: hyphae under
[2]; 3 mg/mL
  24 hour Change in morphology If yes, description of change: no
  48 hour Change in morphology If yes, description of change: no
  72 hour Change in morphology If yes, description of change: no
  96 hour Change in morphology If yes, description of change: no
